# In patent US6858645B2, “Tartrate salts of (R) -3-N,N- dicyclobutylamino-8-fluoro-3,4-dihydro-2H-1- benzopyran-5-carboxamide” (AstraZeneca AB, priority 1997, dated 2005):
# Assays:
# [1] = background statement on the salt disclosed in WO 95/11891; cited from earlier work
# [2] = Moisture sorption analysis (absorption and desorption), VTI microbalance, as a measure of physical stability; assay type: physicochemical; conditions: 25° C.
# Experimental: Determination of Stability […] The moisture sorption analysis, absorption and desorption, respective was performed using a VTI microbalance, Model […] (VTI Corporation, USA) linked to an IBM PC. The relative humidity (RH) within the balance was monitored using a dew point analyser. […] The desorption profile was also obtained.
# [3] = thermogravimetric measurement
# [4] = water firmly bound in crystal lattice
Structure (SMILES),hygroscopicity / physical stability during manufacturing and storage [1],behaviour at high relative humidity ([2]; 85% relative humidity),moisture taken up ([2]; 85% relative humidity),initial weight loss (thermogravimetric) [3] [% w/w],RH at which significant uptake of moisture was recorded ([2]; RH steps of 5%) [%],moisture absorbed ([2]; RH of 90%),desorption profile ([2]; desorption after exposure up to 90% RH),heating temperature up to which crystal water is not released [4]
"Cl.NC(=O)c1ccc(F)c2c1C[C@@H](N(C1CCC1)C1CCC1)CO2 [HCl salt, (R)-3-N,N-dicyclobutylamino-8-fluoro-3,4-dihydro-2H-1-benzopyran-5-carboxamide, reference compound]",hygroscopic and thus physically unstable,exhibits deliquescence,approximately 20 % w/w,–,–,–,–,–
"NC(=O)c1ccc(F)c2c1C[C@@H](N(C1CCC1)C1CCC1)CO2.O.O=C(O)C(O)C(O)C(=O)O [Example 2, (R)-3-N,N-dicyclobutylamino-8-fluoro-3,4-dihydro-2H-1-benzopyran-5-carboxamide Hydrogen (2R,3R)-Tartrate Monohydrate]",–,–,–,4.104,≥ 60,2.5 % (w/w),the moisture uptake is reversible,up to 70 °C
